Measurements published in patent publication US11691949B2, “Quinoline sulfonamide compounds and their use as antibacterial agents” (OTAGO INNOVATION LIMITED, priority 2017, dated 2023).
In brackets after ≈: the same amount, converted by molar mass. Read-outs that look alike come from different tables or passages of the source.

Experiments:
Type in all cases: cell-based
S. uberis ATCC 19436 = experiment: MIC by broth microdilution, S. uberis; conditions: Streptococcus uberis, read-out: S. uberis ATCC 19436 MIC
Summary of the method: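 This broth microdilution assay used S. uberis ATCC 19436 in Todd Hewitt Broth, with zinc sulphate heptahydrate added where required to a final 50 μM. Inhibitor concentration ranges came from two-fold serial dilutions in 96-well flat bottom plates at 200 μl. Approximately 5×10^5 cfu/mL cells were incubated for 24 h at 37° C. and 200 rpm. Wells were then read at OD600 on a Varioskan Flash reader.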

S. aureus ATCC 6538 = experiment: MIC by broth microdilution, S. aureus; conditions: Staphylococcus aureus, read-out: S. aureus ATCC 6538 MIC
Summary of the method: (§1)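 Two-fold serial dilutions were tested in broth at ~5×10^5 cfu/mL: S. aureus in TSB or CAMHB, E. coli in LB or CAMHB, with 50 μM zinc sulphate added as required. After 24 h at 37° C, 200 rpm, MIC was the lowest concentration showing no growth by OD600.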

E. coli ATCC 10596 = experiment: MIC by broth microdilution, E. coli; conditions: Escherichia coli, read-out: E. coli ATCC 10536 MIC
Summary of the method: as §1

[1] = ATCC 10536 / ATCC 10596, No Zinc
[2] = ATCC 10536 / ATCC 10596, Zinc (50 μM)

| Structure (SMILES) | MIC (S. uberis ATCC 19436; ATCC19436, No Zinc) | MIC (S. uberis ATCC 19436; ATCC19436, Zinc (50 μM)) | MIC (S. aureus ATCC 6538; ATCC6538, No Zinc) | MIC (S. aureus ATCC 6538; ATCC6538, Zinc (50 μM)) | MIC (E. coli ATCC 10596; [1]) | MIC (E. coli ATCC 10596; [2]) |
| --- | --- | --- | --- | --- | --- | --- |
| CN(C)Cc1ccc2cccc(NS(=O)(=O)c3ccc(C(C)(C)C)cc3)c2n1 [ZDR307, 4-(tert-Butyl)-N-(2-((dimethylamino)methyl)quinolin-8-yl)benzenesulfonamide] | > 256 µg/mL | 0.0625 µg/mL (≈ 0.157 µM) | > 256 µg/mL | > 256 µg/mL | > 256 µg/mL | > 256 µg/mL |
| COC(=O)c1cccc(S(=O)(=O)Nc2cccc3ccc(CN(C)C)nc23)c1 [ZDR308, Methyl 3-(N-(2-((dimethylamino)methyl)quinolin-8-yl)sulfamoyl)benzoate] | 256 µg/mL (≈ 641 µM) | 0.25 µg/mL (≈ 0.626 µM) | 256 µg/mL (≈ 641 µM) | > 256 µg/mL | 256 µg/mL (≈ 641 µM) | > 256 µg/mL |
| CN(C)Cc1ccc2cccc(NS(=O)(=O)c3cccc(Br)c3)c2n1 [ZDR309, 3-Bromo-N-(2-((dimethylamino)methyl)quinolin-8-yl)benzenesulfonamide] | 128 µg/mL (≈ 305 µM) | 0.125 µg/mL (≈ 0.297 µM) | 64 µg/mL (≈ 152 µM) | 128 µg/mL (≈ 305 µM) | > 256 µg/mL | > 256 µg/mL |
| CN(C)Cc1ccc2cccc(NS(=O)(=O)c3cccc(S(C)(=O)=O)c3)c2n1 [ZDR310, N-(2-((Dimethylamino)methyl)quinolin-8-yl)-3-(methylsulfonyl)benzenesulfonamide] | 256 µg/mL (≈ 610 µM) | 4 µg/mL (≈ 9.53 µM) | > 256 µg/mL | > 256 µg/mL | > 256 µg/mL | > 256 µg/mL |
| CC(=O)c1cccc(S(=O)(=O)Nc2cccc3ccc(CN(C)C)nc23)c1 [ZDR311, 3-Acetyl-N-(2-((dimethylamino)methyl)quinolin-8-yl)benzenesulfonamide] | 256 µg/mL (≈ 668 µM) | 0.0625 µg/mL (≈ 0.163 µM) | > 256 µg/mL | 256 µg/mL (≈ 668 µM) | > 256 µg/mL | > 256 µg/mL |
| CN(C)Cc1ccc2cccc(NS(=O)(=O)c3cccc(F)c3)c2n1 [ZDR312, N-(2-((Dimethylamino)methyl)quinolin-8-yl)-3-fluorobenzenesulfonamide] | 128 µg/mL (≈ 356 µM) | 0.125 µg/mL (≈ 0.348 µM) | 256 µg/mL (≈ 712 µM) | 256 µg/mL (≈ 712 µM) | > 256 µg/mL | > 256 µg/mL |
| CN(C)Cc1ccc2cccc(NS(=O)(=O)c3cccc([N+](=O)[O-])c3)c2n1 [ZDR313, N-(2-((Dimethylamino)methyl)quinolin-8-yl)-3-nitrobenzenesulfonamide] | 128 µg/mL (≈ 331 µM) | 0.25 µg/mL (≈ 0.647 µM) | 128 µg/mL (≈ 331 µM) | > 256 µg/mL | > 256 µg/mL | > 256 µg/mL |
| COc1cccc(S(=O)(=O)Nc2cccc3ccc(CN(C)C)nc23)c1 [ZDR314, N-(2-((Dimethylamino)methyl)quinolin-8-yl)-3-methoxybenzenesulfonamide] | 128 µg/mL (≈ 345 µM) | 0.25 µg/mL (≈ 0.673 µM) | 256 µg/mL (≈ 689 µM) | > 256 µg/mL | > 256 µg/mL | > 256 µg/mL |
| Cc1cccc(S(=O)(=O)Nc2cccc3ccc(CN(C)C)nc23)c1 [ZDR315, N-(2-((Dimethylamino)methyl)quinolin-8-yl)-3-methylbenzenesulfonamide] | > 256 µg/mL | 0.25 µg/mL (≈ 0.703 µM) | 256 µg/mL (≈ 720 µM) | > 256 µg/mL | > 256 µg/mL | > 256 µg/mL |
| CN(C)Cc1ccc2cccc(NS(=O)(=O)CCC(F)(F)F)c2n1 [ZDR316, N-(2-((Dimethylamino)methyl)quinolin-8-yl)-3,3,3-trifluoropropane-1-sulfonamide] | > 256 µg/mL | 0.125 µg/mL (≈ 0.346 µM) | > 256 µg/mL | > 256 µg/mL | > 256 µg/mL | > 256 µg/mL |
| CN(C)Cc1ccc2cccc(NS(=O)(=O)Cc3ccccc3)c2n1 [ZDR317, N-(2-((Dimethylamino)methyl)quinolin-8-yl)-1-phenylmethanesulfonamide] | 256 µg/mL (≈ 720 µM) | 0.25 µg/mL (≈ 0.703 µM) | > 256 µg/mL | 128 µg/mL (≈ 360 µM) | > 256 µg/mL | > 256 µg/mL |
| CC(C)S(=O)(=O)Nc1cccc2ccc(CN(C)C)nc12 [ZDR318, N-(2-((Dimethylamino)methyl)quinolin-8-yl)propane-2-sulfonamide] | 256 µg/mL (≈ 833 µM) | 32 µg/mL (≈ 104 µM) | > 256 µg/mL | > 256 µg/mL | > 256 µg/mL | > 256 µg/mL |
